Among the data in US20230139171A1 (SITA Information Networking Computing UK Limited, priority 2019, published 2023) are IC50 values, retold here.

Assay type in all cases: cell-based
For one assay, the target named is T1, human TLR7 (Homo sapiens, UniProt Q9NYK1).
T1 construct: host or cells: HEK-Blue cells
T1 sequence (Q9NYK1 27-1049): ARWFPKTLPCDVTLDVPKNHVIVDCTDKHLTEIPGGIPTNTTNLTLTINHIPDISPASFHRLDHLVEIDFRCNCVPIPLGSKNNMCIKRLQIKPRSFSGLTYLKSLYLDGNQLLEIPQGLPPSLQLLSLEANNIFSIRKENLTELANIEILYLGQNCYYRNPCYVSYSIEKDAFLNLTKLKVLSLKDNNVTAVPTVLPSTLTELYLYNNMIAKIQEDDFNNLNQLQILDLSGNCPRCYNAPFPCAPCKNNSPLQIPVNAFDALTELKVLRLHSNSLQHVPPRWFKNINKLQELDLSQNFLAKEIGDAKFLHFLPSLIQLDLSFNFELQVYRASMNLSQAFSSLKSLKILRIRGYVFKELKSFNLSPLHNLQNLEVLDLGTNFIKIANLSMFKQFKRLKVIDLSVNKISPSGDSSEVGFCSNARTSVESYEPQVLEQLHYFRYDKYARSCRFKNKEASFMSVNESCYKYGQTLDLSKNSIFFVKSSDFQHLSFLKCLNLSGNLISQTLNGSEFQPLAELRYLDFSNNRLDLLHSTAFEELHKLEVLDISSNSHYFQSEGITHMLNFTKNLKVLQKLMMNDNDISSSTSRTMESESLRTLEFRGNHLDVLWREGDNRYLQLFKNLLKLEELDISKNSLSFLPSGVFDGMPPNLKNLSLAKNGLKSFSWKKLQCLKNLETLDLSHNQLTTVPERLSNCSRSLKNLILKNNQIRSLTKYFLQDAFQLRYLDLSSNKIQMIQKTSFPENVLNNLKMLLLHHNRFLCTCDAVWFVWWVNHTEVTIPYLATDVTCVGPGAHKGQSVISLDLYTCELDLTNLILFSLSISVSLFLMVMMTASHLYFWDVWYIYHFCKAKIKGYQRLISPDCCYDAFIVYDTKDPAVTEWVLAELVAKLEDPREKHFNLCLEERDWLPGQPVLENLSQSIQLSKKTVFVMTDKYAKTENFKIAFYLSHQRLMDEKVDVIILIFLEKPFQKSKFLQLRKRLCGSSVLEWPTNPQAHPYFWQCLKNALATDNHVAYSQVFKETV
Kind of assay: TLR7 inhibition reporter assay (HEK-Blue cells, SEAP reporter, gardiquimod stimulation). As to conditions: HEK-Blue cells overexpressing human TLR7, SEAP reporter, gardiquimod 7.5 μM; read-out: TLR7 IC50. A digest of the protocol:
(§1)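 HEK-Blue cells overexpressing human TLR7, TLR8 or TLR9 carry a SEAP reporter driven by NF-κB/AP-1 sites. Compounds (0.05 nM–50 μM) were preincubated 30 min at room temperature, then cells were stimulated with gardiquimod 7.5 μM (TLR7), R848 15.9 μM (TLR8) or ODN2006 5 nM (TLR9) for 22 h at 37 °C.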

The target in a further assay is T2, human TLR8 (Homo sapiens, UniProt Q9NR97).
T2 construct: host or cells: HEK-Blue cells
T2 sequence (Q9NR97 27-1041): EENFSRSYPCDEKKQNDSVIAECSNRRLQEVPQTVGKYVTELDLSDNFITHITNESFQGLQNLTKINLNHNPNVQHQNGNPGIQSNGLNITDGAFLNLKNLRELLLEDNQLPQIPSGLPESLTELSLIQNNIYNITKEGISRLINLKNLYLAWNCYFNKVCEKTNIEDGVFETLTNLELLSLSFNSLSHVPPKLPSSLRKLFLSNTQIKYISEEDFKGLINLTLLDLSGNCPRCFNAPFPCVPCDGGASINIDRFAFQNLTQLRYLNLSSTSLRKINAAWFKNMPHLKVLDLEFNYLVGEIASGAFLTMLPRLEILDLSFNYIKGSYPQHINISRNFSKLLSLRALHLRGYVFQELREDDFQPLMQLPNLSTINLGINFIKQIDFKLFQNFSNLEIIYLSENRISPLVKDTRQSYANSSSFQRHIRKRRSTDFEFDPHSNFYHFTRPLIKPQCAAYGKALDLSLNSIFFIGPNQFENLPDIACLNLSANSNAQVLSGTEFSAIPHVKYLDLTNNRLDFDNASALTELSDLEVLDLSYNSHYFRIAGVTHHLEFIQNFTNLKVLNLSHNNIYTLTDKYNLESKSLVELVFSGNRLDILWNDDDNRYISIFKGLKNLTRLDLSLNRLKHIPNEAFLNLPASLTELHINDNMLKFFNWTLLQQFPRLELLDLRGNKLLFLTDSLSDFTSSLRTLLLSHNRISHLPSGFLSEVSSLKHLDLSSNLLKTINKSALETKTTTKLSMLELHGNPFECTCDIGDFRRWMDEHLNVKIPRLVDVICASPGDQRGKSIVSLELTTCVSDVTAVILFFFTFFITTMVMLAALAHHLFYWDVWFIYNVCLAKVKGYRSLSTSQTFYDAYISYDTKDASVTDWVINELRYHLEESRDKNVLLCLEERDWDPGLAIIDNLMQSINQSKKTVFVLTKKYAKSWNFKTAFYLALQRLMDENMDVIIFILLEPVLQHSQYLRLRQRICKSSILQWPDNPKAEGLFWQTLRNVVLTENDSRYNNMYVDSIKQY
The assay can be described thus: TLR8 inhibition reporter assay (HEK-Blue cells, SEAP reporter, R848 stimulation). As to conditions: HEK-Blue cells overexpressing human TLR8, SEAP reporter, R848 15.9 μM; read-out: TLR8 IC50. The method, boiled down: as §1

A further assay has as its target T3, human TLR9 (Homo sapiens, UniProt Q9NR96).
T3 construct: host or cells: HEK-Blue cells
T3 sequence (Q9NR96 26-1032): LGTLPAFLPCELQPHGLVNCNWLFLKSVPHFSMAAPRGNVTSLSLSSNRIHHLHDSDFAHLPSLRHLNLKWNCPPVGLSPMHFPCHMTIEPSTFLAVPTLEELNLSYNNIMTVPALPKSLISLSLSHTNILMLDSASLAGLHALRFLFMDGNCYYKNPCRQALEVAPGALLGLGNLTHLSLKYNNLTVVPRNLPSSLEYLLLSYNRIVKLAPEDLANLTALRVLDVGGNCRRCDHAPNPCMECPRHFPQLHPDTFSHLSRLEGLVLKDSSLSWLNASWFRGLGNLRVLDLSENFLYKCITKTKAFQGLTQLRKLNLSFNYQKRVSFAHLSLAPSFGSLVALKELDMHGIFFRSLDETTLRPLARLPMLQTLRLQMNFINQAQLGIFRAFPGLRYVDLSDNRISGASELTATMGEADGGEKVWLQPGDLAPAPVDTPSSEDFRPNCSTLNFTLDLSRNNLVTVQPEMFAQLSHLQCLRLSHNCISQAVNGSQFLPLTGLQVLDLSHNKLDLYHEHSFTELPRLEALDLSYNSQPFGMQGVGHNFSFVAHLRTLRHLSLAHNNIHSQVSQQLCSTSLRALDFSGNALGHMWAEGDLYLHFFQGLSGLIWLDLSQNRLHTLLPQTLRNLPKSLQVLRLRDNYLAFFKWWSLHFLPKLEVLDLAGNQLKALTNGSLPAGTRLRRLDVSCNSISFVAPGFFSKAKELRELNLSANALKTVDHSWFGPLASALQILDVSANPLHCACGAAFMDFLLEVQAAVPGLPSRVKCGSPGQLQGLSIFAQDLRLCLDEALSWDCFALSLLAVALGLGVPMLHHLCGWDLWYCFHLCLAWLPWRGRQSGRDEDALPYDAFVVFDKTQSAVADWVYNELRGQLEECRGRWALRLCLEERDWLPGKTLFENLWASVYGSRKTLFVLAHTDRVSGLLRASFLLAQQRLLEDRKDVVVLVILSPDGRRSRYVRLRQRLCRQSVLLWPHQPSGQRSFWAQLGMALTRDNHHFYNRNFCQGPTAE
Kind of assay: TLR9 inhibition reporter assay (HEK-Blue cells, SEAP reporter, ODN2006 stimulation). Particulars: HEK-Blue cells overexpressing human TLR9, SEAP reporter, ODN2006 5 nM. A digest of the protocol:
as §1

Regarding `COc1cc(-c2[nH]c3sc(C4CCC(N(C)CCS(C)(=O)=O)CC4)nc3c2C(C)C)cn2ncnc12` (single isomer, unassigned) [Example 164, 4-(6-isopropyl-5-(8-methoxy-[1,2,4]triazolo[1,5-a]pyridin-6-yl)-4H-pyrrolo[3,2-d]thiazol-2-yl)-N-methyl-N-(2-(methylsulfonyl)ethyl) cyclohexan-1-amine], the IC50 at human TLR7 was found to be 1.32 nM; at human TLR8 it was 4.43 nM; on human TLR9 it was 15600 nM.
Turning to `Cc1c(-c2[nH]c3sc(C4CCN(S(C)(=O)=O)CC4)nc3c2C(C)C)cn2ncnc2c1C` [Example 45, 5-(7,8-dimethyl-[1,2,4]triazolo[1,5-a]pyridin-6-yl)-6-isopropyl-2-(1-(methylsulfonyl)piperidin-4-yl)-4H-pyrrolo[3,2-d]thiazole], the IC50 is 1.84 nM at human TLR7, 19.5 nM at human TLR8 and 45400 nM on human TLR9.
For `COc1cc(-c2[nH]c3sc(C4CCNCC4)nc3c2C(C)C)cn2ncnc12` [Example 1, 6-isopropyl-5-(8-methoxy-[1,2,4]triazolo[1,5-a]pyridin-6-yl)-2-(piperidin-4-yl)-4H-pyrrolo[3,2-d]thiazole] the same measures were 2.01 nM, 8.14 nM and 760 nM.
For `COc1cc(-c2[nH]c3sc(C4CCC(N5CCCC5)CC4)nc3c2C(C)C)cn2ncnc12` (single isomer, unassigned) [Example 98, 6-isopropyl-5-(8-methoxy-[1,2,4]triazolo[1,5-a]pyridin-6-yl)-2-(4-(pyrrolidin-1-yl)cyclohexyl)-4H-pyrrolo[3,2-d]thiazole], in that order: 0.12 nM, 1.37 nM and 2980 nM.
Regarding `Cc1c(-c2[nH]c3sc(C4CCN(CC5(C)COC5)CC4)nc3c2C(C)C)cn2ncnc2c1C` [Example 47, 5-(7,8-dimethyl-[1,2,4]triazolo[1,5-a]pyridin-6-yl)-6-isopropyl-2-(1-((3-methyloxetan-3-yl)methyl)piperidin-4-yl)-4H-pyrrolo[3,2-d]thiazole], the IC50 at human TLR7 is 2.92 nM; at human TLR8, 0.56 nM; at human TLR9, 6840 nM.
For `COc1cc(-c2[nH]c3sc(C4CCC(N(C)CC(=O)N(C)C)CC4)nc3c2C(C)C)cn2ncnc12` (single isomer, unassigned) [Example 163, 2-((4-(6-isopropyl-5-(8-methoxy-[1,2,4]triazolo[1,5-a]pyridin-6-yl)-4H-pyrrolo[3,2-d]thiazol-2-yl)cyclohexyl)(methyl)amino)-N,N-dimethylacetamide], in that order: 1.59 nM, 20.6 nM and 9400 nM.
For `CCN(C)C1CCC(c2nc3c(C(C)C)c(-c4cn5ncnc5c(C)c4C)[nH]c3s2)CC1` (single isomer, unassigned) [Example 190, 4-(5-(7,8-dimethyl-[1,2,4]triazolo[1,5-a]pyridin-6-yl)-6-isopropyl-4H-pyrrolo[3,2-d]thiazol-2-yl)-N-ethyl-N-methylcyclohexan-1-amine] the same measures were 0.8 nM, 0.58 nM and 8350 nM.
For `Cc1c(-c2[nH]c3sc(C4CCC(NC(C)C)CC4)nc3c2C(C)C)cn(C)c(=O)c1C` (single isomer, unassigned) [Example 253, 5-(6-isopropyl-2-(4-(isopropylamino)cyclohexyl)-4H-pyrrolo[3,2-d]thiazol-5-yl)-1,3,4-trimethylpyridin-2(1H)-one], in that order: 4.7 nM, 3.01 nM and 23000 nM.
In the case of `Cc1c(-c2[nH]c3sc(C4CCN(C(C)C)CC4)nc3c2C(C)C)cn2ncnc2c1C` [Example 44, 5-(7,8-dimethyl-[1,2,4]triazolo[1,5-a]pyridin-6-yl)-6-isopropyl-2-(1-isopropylpiperidin-4-yl)-4H-pyrrolo[3,2-d]thiazole], the figures for the IC50 on human TLR7, on human TLR8 and against human TLR9 were 1.68 nM, 0.63 nM and 15100 nM, respectively.
For `CCc1c(-c2cc(OC)c3ncnn3c2)[nH]c2sc(C3CCC(N4CC5(COC5)C4)CC3)nc12` (single isomer, unassigned) [Example 270, 6-(4-(6-ethyl-5-(8-methoxy-[1,2,4]triazolo[1,5-a]pyridin-6-yl)-4H-pyrrolo[3,2-d]thiazol-2-yl)cyclohexyl)-2-oxa-6-azaspiro[3.3]heptane] the same measures were 8.99 nM, 14 nM and 3460 nM.
For `Cc1c(-c2[nH]c3sc(C(=O)NCCC4CCN(C)CC4)nc3c2C(C)C)cn2ncnc2c1C` [Example 381, 5-(7,8-dimethyl-[1,2,4]triazolo[1,5-a]pyridin-6-yl)-6-isopropyl-N-(2-(1-methylpiperidin-4-yl)ethyl)-4H-pyrrolo[3,2-d]thiazole-2-carboxamide] the same measures were 11.1 nM, 9.06 nM and 5880 nM.
